Like-named read-outs stand apart in the source and are kept apart here.
Legend:
MV-4-11 cells (FLT3-ITD) = experiment: Cell viability by MTS assay, MV-4-11 cells; type: cell-based; conditions: Homo sapiens, MV4-11, read-out: MV-4-11 (IC50, mean±SEM)
Procedure: Cellular assays were carried out on MV‐4‐11 cells, driven by the FLT3‐ITD mutation.
(§1) The purified enzyme was employed in an ELISA‐based kinase assay with 300 μM ATP and a Tyr‐phosphorylatable substrate peptide, using an anti‐phosphotyrosine antibody for detection (PY20; Santa Cruz Biotech). Cell viability was determined by MTS assay using the CellTiter 96® AQueous One Solution Cell Proliferation Assay kit (Promega) according to manufacturer's instructions. Dose‐response curves were calculated by non‐linear regression (log[inhibitor] vs normalized response) using GraphPad Prism software.

[1] = biological target: T1, recombinant His-tagged FLT3 kinase domain (aa 569–992) (Homo sapiens, UniProt P36888); experiment: ELISA-based in vitro FLT3 kinase assay; type: biochemical; conditions: recombinant FLT3, 300 μM ATP
T1 construct: FLT3 kinase domain (aa 569–992); His; made in house; host or cells: Sf9 cells
T1 sequence (P36888 569-992): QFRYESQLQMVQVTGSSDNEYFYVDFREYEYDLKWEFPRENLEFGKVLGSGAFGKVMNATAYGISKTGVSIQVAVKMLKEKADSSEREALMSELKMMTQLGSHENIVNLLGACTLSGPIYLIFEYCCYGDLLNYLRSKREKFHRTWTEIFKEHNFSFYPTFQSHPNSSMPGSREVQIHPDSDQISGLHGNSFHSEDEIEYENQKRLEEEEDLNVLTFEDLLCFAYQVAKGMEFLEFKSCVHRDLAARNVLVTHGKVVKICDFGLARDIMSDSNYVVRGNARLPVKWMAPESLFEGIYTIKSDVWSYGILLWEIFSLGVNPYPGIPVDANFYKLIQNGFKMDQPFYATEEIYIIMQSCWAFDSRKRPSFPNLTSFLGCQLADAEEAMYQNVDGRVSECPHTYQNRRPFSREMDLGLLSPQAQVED
Procedure: as §1, with “In vitro kinase assays and cell viability assays were performed as described (Mologni et al., 2022).[50] Briefly, recombinant His‐tagged FLT3 kinase domain (aa 569–992) was expressed in Sf9 cells and purified by nickel ion affinity chromatography. The” for “The”

MOLM-14 cells (FLT3-ITD) = experiment: Cell viability by MTS assay, MOLM-14 cells; type: cell-based; conditions: Homo sapiens, read-out: MOLM-14 (IC50, mean±SEM)
[2] = tested on: FLT3-wild type HL60 cells; experiment: Cytotoxicity by MTS assay, control cell line HL60; type: cell-based; conditions: for IC50: Homo sapiens, HL-60, read-out: HL60 (IC50, mean±SEM)
Procedure: Compounds 4 a, 4 d, 4 e, 4 g and 4 q were among the best inhibitors in enzymatic assays and confirmed their activity also in cellular tests on FLT3‐driven MV‐4‐11 and on MOLM‐14 cell lines. To confirm their cellular mechanism of action, we assayed their cytotoxicity against FLT3‐wild type HL60 cells.
as §1, with “In vitro kinase assays and cell viability assays were performed as described (Mologni et al., 2022).[50] Briefly, recombinant His‐tagged FLT3 kinase domain (aa 569–992) was expressed in Sf9 cells and purified by nickel ion affinity chromatography. The” for “The”

[3] = cited from earlier work
[4] = Table 2, FLT3-ITD cell line, MTS viability
[5] = Table 2, read-out: FLT3 Kinase (IC50, mean±SEM)
[6] = Table 3, FLT3-wild type control cell line
[7] = Table 1, read-out: FLT3 Kinase Activity (IC50, mean±SEM)
[8] = Table 4, control analogues lacking boronic group

Row | Structure (SMILES) | IC50 (MV-4-11 cells (FLT3-ITD); [4]) | IC50 [1, 5] | IC50 [1, 7] | other results
1 | O=C(O)c1cccc(CS(=O)(=O)NCc2cn(CB(O)O)nn2)c1 [4 n] | > 100 µM | > 100 µM | – | –
2 | Cc1ccc(C(=O)Nc2ccc(CN3CCN(C)CC3)c(C(F)(F)F)c2)cc1C#Cc1cnc2cccnn12 [ponatinib, reference compound] | 0.007 ± 0.002 µM | – | – | IC50 (MOLM-14 cells (FLT3-ITD); [4]): 0.001 ± 0.0001 µM
3 | Cc1ccc(S(=O)(=O)Nc2cccc(-c3cn(CB(O)O)nn3)c2)cc1 [4 a] | 14 ± 0.2 µM | – | 18 ± 1 µM | IC50 (MOLM-14 cells (FLT3-ITD); [4]): 5.8 ± 0.7 µM; IC50 [2, 6]: > 100 µM
4 | CCCCn1cc(-c2ccc(N)cc2)nn1 [6 e, 4‐(1‐butyl‐1H‐1,2,3‐triazol‐4‐yl)aniline] | – | – | – | IC50 (MV-4-11 cells (FLT3-ITD); [8]): > 100 µM; IC50 (MOLM-14 cells (FLT3-ITD); [8]): > 100 µM; IC50 [2, 8]: > 100 µM
5 | COC(=O)c1cccc(CS(=O)(=O)NCc2cn(CB(O)O)nn2)c1 [4 o] | > 100 µM | 65 ± 11 µM | – | –
6 | NS(=O)(=O)c1cccc(-c2cn(CB(O)O)nn2)c1 [4 f] | > 100 µM | – | > 100 µM | –
7 | CC(C)C(NS(=O)(=O)Cc1ccccc1)B(O)O (stereo not shown) [3 b] | – | – | > 100 µM | –
8 | O=C(Cc1ccc(-c2nn[nH]n2)cc1)NCB(O)O [1 b] | – | – | > 100 µM | –
9 | O=C(O)c1cccc(-c2cn(CB(O)O)nn2)c1 [4 c] | > 100 µM | – | > 100 µM | –
10 | OB(O)Cn1cc(CNc2ccccc2)nn1 [4 u] | 7.6 ± 3.9 µM | > 100 µM | – | IC50 (MOLM-14 cells (FLT3-ITD); [4]): 8.7 ± 1.4 µM; FLT3 Kinase (IC50, mean±SEM) ([1]; Table 2): lose enzymatic activity
11 | Cc1onc(-c2ccccc2Cl)c1C(=O)NCB(O)O [1 c] | – | – | > 100 µM | –
12 | Nc1ccc(-c2cn(CC(=O)O)nn2)cc1 [5 e, 2‐(4‐(4‐aminophenyl)‐1H‐1,2,3‐triazol‐1‐yl)acetic acid] | – | – | – | IC50 (MV-4-11 cells (FLT3-ITD); [8]): > 100 µM; IC50 (MOLM-14 cells (FLT3-ITD); [8]): > 100 µM; IC50 [2, 8]: > 100 µM
13 | NC(=O)c1cccc(-c2cn(CB(O)O)nn2)c1 [4 b] | > 100 µM | – | > 100 µM | –
14 | O=C(CSc1ccncc1)NCB(O)O [1 f] | – | – | > 100 µM | –
15 | O=C(NCc1cn(CB(O)O)nn1)c1ccccc1 [4 t] | > 100 µM | 3.2 ± 0.4 µM | – | –
16 | OB(O)Cn1cc(-c2cnccn2)nn1 [4 h] | > 100 µM | > 100 µM | – | –
17 | COC(=O)c1ccc(CS(=O)(=O)NCc2cn(CB(O)O)nn2)cc1 [4 m] | > 100 µM | > 100 µM | – | –
18 | O=C(OCc1cn(CB(O)O)nn1)c1ccccc1 [4 w] | 1.4 ± 0.3 µM | > 100 µM | – | IC50 (MOLM-14 cells (FLT3-ITD); [4]): 0.35 ± 0.01 µM; FLT3 Kinase (IC50, mean±SEM) ([1]; Table 2): do not inhibit FLT3
19 | OB(O)Cn1cc(-c2cccnc2)nn1 [4 i] | > 100 µM | > 100 µM | – | –
20 | OB(O)Cn1cc(-c2cccs2)nn1 [4 j] | 100 µM | 76 ± 13 µM | – | IC50 (MOLM-14 cells (FLT3-ITD); [4]): 11 ± 2 µM
21 | O=C(NCc1cn(CB(O)O)nn1)C(F)(F)F [4 v] | > 100 µM | > 100 µM | – | FLT3 Kinase (IC50, mean±SEM) ([1]; Table 2): lose enzymatic activity

Row | Structure (SMILES) | IC50 (MV-4-11 cells (FLT3-ITD); [4]) | IC50 [1, 5] | IC50 [1, 7] | other results
22 | CS(=O)(=O)NCc1cn(CB(O)O)nn1 [4 p] | > 100 µM | 42 ± 5 µM | – | –
23 | Cc1ccc(S(=O)(=O)Nc2cccc(OCc3cn(CB(O)O)nn3)c2)cc1 [4 q] | 10 ± 1 µM | 18 ± 3 µM | – | IC50 (MOLM-14 cells (FLT3-ITD); [4]): 4.3 ± 0.5 µM; IC50 [2, 6]: > 100 µM
24 | OB(O)Cn1cc(-c2cccc(Cl)c2)nn1 [4 g] | 2.7 ± 0.9 µM | – | 18 ± 5 µM | IC50 (MOLM-14 cells (FLT3-ITD); [4]): 0.68 ± 0.08 µM; IC50 [2, 6]: 15 ± 1 µM; HL60 (IC50, mean±SEM) [2, 6]: moderate inhibition of HL60
25 | O=C(Cc1ccc(O)c(O)c1)NCB(O)O [1 g] | – | – | > 100 µM | –
26 | Cc1cccc(-c2cn(CB(O)O)nn2)c1 [4 d] | 11 ± 1 µM | – | 25 ± 2 µM | IC50 (MOLM-14 cells (FLT3-ITD); [4]): 3 ± 0.5 µM; IC50 [2, 6]: 32 ± 4 µM; HL60 (IC50, mean±SEM) [2, 6]: moderate inhibition of HL60
27 | O=S(=O)(CC(F)(F)F)NCc1cn(CB(O)O)nn1 [4 k] | > 100 µM | 5.8 ± 0.9 µM | – | –
28 | Nc1nnc(SCC(=O)NC(Cn2cc(C(=O)O)nn2)B(O)O)s1 (stereo not shown) [2 c] | – | – | > 100 µM | –
29 | Nc1cccc(-c2cn(CC(NC(=O)Cc3ccccc3)B(O)O)nn2)c1 (stereo not shown) [2 a] | – | – | > 100 µM | –
30 | O=C(Cc1cccs1)NC(B(O)O)c1ccccc1 (stereo not shown) [1 d] | – | – | > 100 µM | –
31 | Nc1cccc(-c2cn(CB(O)O)nn2)c1 [4 e] | 14 ± 3 µM | – | 6.7 ± 1.7 µM | IC50 (MOLM-14 cells (FLT3-ITD); [4]): 11 ± 1 µM; IC50 [2, 6]: > 100 µM
32 | O=C(Nc1ccccc1)NC(Cc1cccc(C(=O)O)c1)B(O)O (stereo not shown) [1 a] | – | – | > 100 µM | –
33 | NC(=O)c1cn(CC(NC(=O)Cc2cccs2)B(O)O)nn1 (stereo not shown) [2 b] | – | – | > 100 µM | –
34 | CC(=O)NC(Cn1cc(C(C)(C)O)nn1)B(O)O (stereo not shown) [2 e] | – | – | > 100 µM | –
35 | O=C(NCB(O)O)c1ccc(-c2nnn[nH]2)cc1 [1 e] | – | – | > 100 µM | –
36 | OB(O)Cn1cc(COc2ccccc2)nn1 [4 r] | 1.1 ± 0.1 µM | > 100 µM | – | IC50 (MOLM-14 cells (FLT3-ITD); [4]): 0.16 ± 0.01 µM; FLT3 Kinase (IC50, mean±SEM) ([1]; Table 2): do not inhibit FLT3
37 | [Cl-].[Na+] [NaCl] | – | – | – | LD50 [3]: 3000 mg/kg
38 | O=S(=O)(Cc1ccccc1)NCB(O)O [3 a] | – | – | > 100 µM | –
39 | O=S(=O)(NCc1cn(CB(O)O)nn1)c1cccs1 [4 l] | > 100 µM | 25 ± 5 µM | – | –
40 | CC(NS(=O)(=O)Cc1ccccc1)B(O)O (stereo not shown) [3 c] | – | – | > 100 µM | –
41 | CC(=O)NC(Cn1cc(-c2ccccc2)nn1)B(O)O (stereo not shown) [2 d] | – | – | > 100 µM | –

From article PMC11694611, “α‐Triazolylboronic Acids: A Novel Scaffold to Target FLT3 in AML” (Chemmedchem, 2024)
